Columns and labels:
Stagonospora nodorum = experiment: Test D: wheat glume blotch, preventive spray on wheat seedlings; conditions: 100 = 100% disease control; for Test D rating (% disease control): 10 ppm, wheat glume blotch, 0 = no control; for Test D disease control rating: 10 ppm test solution, 0 = no control relative to controls
[1] = tested on: Erysiphe graminis f sp. tritici; experiment: Test G: wheat powdery mildew, preventive spray on wheat seedlings; conditions: 100 = 100% disease control; for Test G rating (% disease control): 10 ppm, wheat powdery mildew, 0 = no control; for Test G disease control rating: 10 ppm test solution, 0 = no control relative to controls
Botrytis cinerea = experiment: Test B: gray mold, preventive spray on tomato seedlings; conditions: 100 = 100% disease control; for Test B rating (% disease control): 10 ppm, gray mold on tomato, 0 = no control; for Test B disease control rating: 10 ppm test solution, 0 = no control relative to controls
Zymoseptoria tritici = experiment: Test E: wheat leaf blotch, preventive spray on wheat seedlings; conditions: 100 = 100% disease control; for Test E rating (% disease control): 10 ppm, wheat leaf blotch, 0 = no control; for Test E disease control rating: 10 ppm test solution, 0 = no control relative to controls
[2] = tested on: Puccinia recondita f sp. tritici; experiment: Test F: wheat leaf rust, preventive spray on wheat seedlings; conditions: 100 = 100% disease control; for Test F rating (% disease control): 10 ppm, wheat leaf rust, 0 = no control; for Test F disease control rating: 10 ppm test solution, 0 = no control relative to controls
Description: General protocol for preparing test solutions for Tests A-G: the test compounds were first dissolved in acetone in an amount equal to 3% of the final volume and then suspended at the desired concentration (in ppm) in acetone and purified water (50/50 mix by volume) containing 250 ppm of the surfactant PEG400 (polyhydric alcohol esters). The resulting test suspensions were then used in Tests A-G. Compounds were sprayed at a concentration of 50 ppm (*) or 10 ppm to the point of run-off on the test plants, the equivalent of a rate of 200 g/ha or 40 g/ha, respectively.
The test solution was sprayed to the point of run-off on wheat seedlings. The following day the seedlings were inoculated with a spore suspension of Puccinia recondita f sp. tritici; (the causal agent of wheat leaf rust) and incubated in a saturated atmosphere at 20° C. for 24 h, and then moved to a growth chamber at 20° C. for 6 days, after which time visual disease ratings were made.
A dash (-) indicates no test results. Compounds with an asterisks (*) were applied at a concentration of 50 ppm, otherwise test solutions were applied at 10 ppm.

| SMILES | Test D rating (% disease control) (Stagonospora nodorum) [%] | Test G rating (% disease control) [1] [%] | Test B rating (% disease control) (Botrytis cinerea) [%] | Test E rating (% disease control) (Zymoseptoria tritici) [%] | Test F rating (% disease control) [2] [%] | Test D disease control rating (Stagonospora nodorum) [%] | Test G disease control rating [1] [%] | Test B disease control rating (Botrytis cinerea) [%] | Test E disease control rating (Zymoseptoria tritici) [%] | Test F disease control rating [2] [%] |
| --- | --- | --- | --- | --- | --- | --- | --- | --- | --- | --- |
| CCC(C)(C)C(O)(Cn1cncn1)C1=NOC(COc2ccc(Cl)cc2)C1 (single isomer, unassigned) [Compound 193] | 93 | 97 | 9 | 22 | 99 |  |  |  |  |  |
| CC(C)(C)CC(O)(Cn1cncn1)C1=NOC(COc2ccc(Cl)cc2)C1 (single isomer, unassigned) [Compound 172] | 100 | 99 | 0 | 4 | 100 |  |  |  |  |  |
| CC(C)(C)C(O)(Cn1cncn1)C1=NOC(COc2ccc(C(F)(F)F)cc2)C1 (single isomer, unassigned) [Compound 88] | 99 | 99 | 0 | 76 | 100 |  |  |  |  |  |
| CC(C)(C)CC(O)(Cn1cncn1)C1=NOC(Cc2ccc(C(F)(F)F)cc2)C1 (single isomer, unassigned) [Compound 227] |  |  |  |  |  | 73 | 100 | 0 | 29 | 100 |
| CC(C)(C)C(O)(Cn1cncn1)C1=NOC(Cc2ccccc2)C1 (single isomer, unassigned) [Compound 87] | 99 | 98 | 83 | 1 | 99 |  |  |  |  |  |
| CS(=O)(=O)c1ccc(C2CC(C(O)(Cn3cncn3)c3ccc(Cl)cc3)=NO2)cc1 (single isomer, unassigned) [Compound 114] | 0 | 56 | 0 | 39 | 36 |  |  |  |  |  |
| CC(C)(C)C(O)(Cn1cncn1)C1=NOC(COCc2ccccc2)C1 (single isomer, unassigned) [Compound 59] | 92 | 89 | 0 | 2 | 80 |  |  |  |  |  |
| OC(Cn1cncn1)(C1=NOC(c2ccc(F)cc2)C1)c1ccc(Cl)cc1 (single isomer, unassigned) [Compound 158] | 96 | 100 | 0 | 3 | 100 |  |  |  |  |  |
| CC(C)(C)C(O)(Cn1cncn1)C1=NOC(COc2ccc(F)cc2F)C1 (single isomer, unassigned) [Compound 21] | 100 | 99 | 9 | 0 | 100 |  |  |  |  |  |
| CC(C)(C)C(O)(Cn1cncn1)C1=NOC(COC2CCCCC2)C1 (single isomer, unassigned) [Compound 91] | 20 | 56 | 0 | 2 | 0 |  |  |  |  |  |
| CCC(C)(C)C(O)(Cn1cncn1)C1=NOC(Cc2ccc(Cl)cc2)C1 (single isomer, unassigned) [Compound 17] | 98 | 100 | 51 | 7 | 100 |  |  |  |  |  |
| CC(C)(C)C(O)(Cn1cncn1)C1=NOC(Cc2ccc(Cl)c(Cl)c2)C1 (single isomer, unassigned) [Compound 23] | 97 | 100 | 0 | 89 | 100 |  |  |  |  |  |
| OC(Cn1cncn1)(C1=NOC2c3ccccc3CCC12)c1ccc(Cl)cc1 (centres unmarked) [Compound 223] |  |  |  |  |  | 0 | 99 | 0 | 63 | 100 |
| OC(Cn1cncn1)(C1=NOC(c2ccc(Cl)cc2)C1)c1ccc(Br)cc1 (single isomer, unassigned) [Compound 181] | 0 | 69 | 0 | 0 | 45 |  |  |  |  |  |
| OC(Cn1cncn1)(C1=NOC(CSc2ccccc2)C1)c1ccc(Cl)cc1 (single isomer, unassigned) [Compound 50] | 87 | 94 | 19 | 3 | 99 |  |  |  |  |  |
| CC(C)(C)C(O)(Cn1cncn1)C1=NOC(CCc2ccc(C(F)(F)F)cc2)C1 (single isomer, unassigned) [Compound 13] | 100 | 100 | 0 | 98 | 100 |  |  |  |  |  |
| OC(Cn1cncn1)(C1=NOC(Cn2cc(Br)cn2)C1)c1ccc(Cl)cc1 (single isomer, unassigned) [Compound 38] | 0 | 72 | 0 | 1 | 55 |  |  |  |  |  |
| CC(C)(C)C(O)(Cn1cncn1)C1=NOC(COc2ccc(Cl)nc2)C1 (single isomer, unassigned) [Compound 98] | 0 | 55 | 0 | 0 | 88 |  |  |  |  |  |
| CC(C)(C)C(O)(Cn1cncn1)C1=NOC(COc2ccc(OCc3ccccc3)cc2)C1 (single isomer, unassigned) [Compound 72] | 0 | 56 | 19 | 0 | 0 |  |  |  |  |  |
| OC(Cn1cncn1)(C1=NOC(COc2ccccc2)C1)c1ccc(Cl)cc1 (single isomer, unassigned) [Compound 144] | 99 | 99 | 0 | 17 | 100 |  |  |  |  |  |
| OC(Cn1cncn1)(C1=NOC(c2ccc(Br)cc2)C1)c1ccc(Cl)cc1 (single isomer, unassigned) [Compound 178] | 99 | 100 | 0 | 91 | 100 |  |  |  |  |  |
| OC(Cn1cncn1)(C1=NOC(Cc2ccc(F)cc2)C1)c1ccc(Cl)cc1 (single isomer, unassigned) [Compound 200] | 11 | 99 | 0 | 16 | 99 |  |  |  |  |  |

— US20160242416A1, “FUNGICIDAL ISOXAZOLINE CARBINOLS” (E I DU PONT DE NEMOURS AND COMPANY, priority 2015, published 2016)
